This note sets out measurements from patent US12162858B2, “Quinoline derivatives as inhibitors of AXL/MER RTK and CSF1R” (QURIENT CO., LTD., priority 2018, dated 2024).

For orientation: pIC50 means the negative decadic logarithm of the IC50, by convention in mol/L.

Each structure is given as a SMILES string. pIC50: −log10 of the molar value.

The target of the test is T1, Axl (Homo sapiens, UniProt P30530).
T1 sequence (P30530 26-894): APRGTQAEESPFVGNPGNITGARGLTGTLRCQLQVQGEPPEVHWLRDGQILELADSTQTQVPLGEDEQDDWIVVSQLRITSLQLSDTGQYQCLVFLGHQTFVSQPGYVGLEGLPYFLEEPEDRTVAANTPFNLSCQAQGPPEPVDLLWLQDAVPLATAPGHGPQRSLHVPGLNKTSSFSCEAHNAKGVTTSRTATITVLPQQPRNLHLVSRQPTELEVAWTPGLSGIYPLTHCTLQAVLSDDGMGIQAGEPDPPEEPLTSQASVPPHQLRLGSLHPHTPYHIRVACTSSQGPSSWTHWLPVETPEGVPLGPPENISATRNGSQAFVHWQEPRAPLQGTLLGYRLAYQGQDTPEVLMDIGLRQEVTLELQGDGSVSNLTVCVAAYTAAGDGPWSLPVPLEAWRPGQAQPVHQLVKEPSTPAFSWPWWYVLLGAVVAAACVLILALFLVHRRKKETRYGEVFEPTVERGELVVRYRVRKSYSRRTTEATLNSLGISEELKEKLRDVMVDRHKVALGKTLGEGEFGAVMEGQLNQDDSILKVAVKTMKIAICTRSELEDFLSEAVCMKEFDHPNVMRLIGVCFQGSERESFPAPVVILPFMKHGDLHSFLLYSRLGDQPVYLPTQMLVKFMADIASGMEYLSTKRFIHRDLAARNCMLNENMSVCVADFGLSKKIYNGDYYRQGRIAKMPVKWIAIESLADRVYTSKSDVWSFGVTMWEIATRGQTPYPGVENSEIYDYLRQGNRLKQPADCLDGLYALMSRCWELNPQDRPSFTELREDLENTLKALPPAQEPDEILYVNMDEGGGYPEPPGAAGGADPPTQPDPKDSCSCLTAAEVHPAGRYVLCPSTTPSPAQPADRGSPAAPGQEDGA
The test is described as follows: Cellular Axl inhibition ELISA (p-Axl, Gas6-induced) using H1299 cells. It counts as cell-based. Also noted: especially H1299 cell endogenously expresses Axl; endogenous in cells; host or cells: H1299. The following applies: read-out: Cellular Axl activity by H1299 Elisa (IC50). A digest of the protocol:
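H1299 cells, seeded overnight, exposed 24 h at 37 °C to 10-point 3-fold compound dilutions, then stimulated with 200 ng/ml human Gas6 (final) for 1 h. Lysates assayed for p-Axl by sandwich ELISA with HRP/TMB, absorbance 450 nm; IC50 by sigmoidal dose-response fit.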
(In general: ELISA stands for enzyme-linked immunosorbent assay.)
As to `COc1cc2nccc(Oc3ccc(NC(=O)c4nn(CC5CCOC5)cc4OCC(F)(F)F)nc3)c2cc1OC` (stereo not drawn) [Compound 44], the pIC50 was over 6.30. As for `COc1cc2nccc(Oc3ccc(NC(=O)c4nn(CCC#N)cc4OCC(F)(F)F)nc3)c2cc1OC` [Compound 39], the figure is over 6.30; as for `COc1cc2nccc(Oc3ccc(NC(=O)c4nn(CC5CNC5)cc4OCC(F)(F)F)nc3)c2cc1OC` [Compound 73], at most 6.00. `COc1cc2nccc(Oc3ccc(NC(=O)c4nn(C5CC5)cc4OCCC(F)(F)F)nn3)c2cc1OC` [Compound 173]: the pIC50 is over 6.30. On to `CCCn1cc(OCC(F)(F)F)c(C(=O)Nc2ccc(Oc3ccnc4cc(OC)c(OC)cc34)cc2)n1` [Compound 38], for which the pIC50 was over 6.30. As to `CCCn1cc(OCCC(O)CO)c(C(=O)Nc2ccc(Oc3ccnc4cc(OC)c(OC)cc34)cn2)n1` (stereo not drawn) [Compound 15], the pIC50 was at most 6.00.

Consider `COc1cc2nccc(Oc3ccc(NC(=O)c4nn(CC(C)C)cc4OCC(F)(F)F)nc3)c2cc1OC` [Compound 21], for which the pIC50 is over 6.30. Take `COc1cc2nccc(Oc3ccc(NC(=O)c4cc(C5CC5)cnc4OCC(F)(F)F)nc3)c2cc1OC` [Compound 178]: the negative logarithm of the IC50 (pIC50) was over 6.30. Take `COc1cc2nccc(Oc3ccc(NC(=O)c4nn(C)cc4OCC(F)(F)F)cc3F)c2cc1OC` [Compound 50]: the pIC50 was over 6.30. With `COc1cc2nccc(Oc3ccc(NC(=O)c4nn(CC(C)N)cc4OCC(F)(F)F)nc3)c2cc1OC` (stereo not drawn) [Compound 63], the pIC50 is over 6.30. In the case of `COc1cc2nccc(Oc3ccc(NC(=O)c4nn(C[C@@H](C)O)cc4OCC(F)(F)F)nc3)c2cc1OC` [Compound 29] it was over 6.30. In the case of `COc1cc2nccc(Oc3ccc(NC(=O)c4nn(C5CCOC5)cc4OCC(F)(F)F)cc3F)c2cc1OC` (stereo not drawn) [Compound 55] it was over 6.30; in that of `CCCn1cc(OCC(F)(F)F)c(C(=O)Nc2ccc(Oc3ccnc4cc(OC)c(OC)cc34)cc2F)n1` [Compound 28], over 6.30; in that of `COc1cc2nccc(Oc3ccc(NC(=O)c4nn(CC(C)O)cc4OCC(F)(F)F)nc3)c2cc1OC` (stereo not drawn) [Compound 17], over 6.30. In the case of `COc1cc2nccc(Oc3ccc(NC(=O)c4nn(CC5CCNC5)cc4OCC(F)(F)F)nc3)c2cc1OC` (stereo not drawn) [Compound 72] it was at most 6.00; in that of `COc1cc2nccc(Oc3ccc(NC(=O)c4nn(C5CCCC5)cc4OCC(F)(F)F)nc3)c2cc1OC` [Compound 40], over 6.30.

For the compound `COc1cc2nccc(Oc3ccc(NC(=O)c4sc(C5CC5)cc4OCC(F)(F)F)nc3)c2cc1OC` [Compound 179], the pIC50 was over 6.30. As to `COc1cc2nccc(Oc3ccc(NC(=O)c4nn(C5CCCC5)cc4OCC(F)(F)F)cc3F)c2cc1OC` [Compound 52], the pIC50 is over 6.30. With `COc1cc2nccc(Oc3ccc(NC(=O)c4nn(C5CC5)cc4OCCC(F)(F)F)nc3)c2cc1OC` [Compound 170], the pIC50 was over 6.30. As for `COc1cc2nccc(Oc3ccc(NC(=O)c4nn(CCNC5CC5)cc4OCC(F)(F)F)nc3)c2cc1OC` [Compound 168], the figure is over 6.30.

For the compound `COc1cc2nccc(Oc3ccc(NC(=O)c4nn(C5CCC5)cc4OCC(F)(F)F)nc3)c2cc1OC` [Compound 24], the pIC50 is over 6.30. As to `CCCn1cc(N(C)CC2CCOCC2)c(C(=O)Nc2ccc(Oc3ccnc4cc(OC)c(OC)cc34)cn2)n1` [Compound 34], the pIC50 was at most 6.00. Regarding `COc1cc2nccc(Oc3ccc(NC(=O)c4nn(CCO)cc4OCC(F)(F)F)cc3C)c2cc1OC` [Compound 56], the pIC50 was at most 6.00. With `COc1cc2nccc(Oc3ccc(NC(=O)c4nn(C(C)C)c(C)c4OCC(F)(F)F)nc3)c2cc1OC` [Compound 2], the pIC50 was over 6.30.
